Measured values published in US20250188092A1, “RIFAMYCIN ANALOGS” (THE REGENTS OF THE UNIVERSITY OF MICHIGAN, priority 2021, published 2025).
Like-named read-outs stand apart in the source and are kept apart here.

Test system: non-replicating cultures of M. tuberculosis H37Rv transformed with lux ABCDE
Test: microbe, parasite or virus in culture
Type: cell-based, Mycobacterium tuberculosis
Conditions: for MIC90: ≥90% reduction in luminescence, read-out: MIC90 LORA; for MIC90 LORA/MABA: ratio of LORA MIC90 to MABA MIC90
[1] = Mycobacterium tuberculosis, H37RV

SMILES	MIC90 [1] [µM]	MIC90 LORA Rel to RMP	MIC90 LORA/MABA	MIC90 [µM]
CO[C@H]1/C=C/O[C@@]2(C)Oc3c(C)c(O)c4c(=O)c(c5oc6cc(N7CCN(CC(C)C)CC7)cc(OCc7ccc(CN8CCN(C(=O)CN9CCOCC9)CC8)cc7)c6nc-5c4c3C2=O)NC(=O)/C(C)=C\C=C\[C@H](C)[C@H](O)[C@@H](C)[C@@H](O)[C@@H](C)[C@H](OC(C)=O)[C@@H]1C [Compound 17d, (7S,9E,11S,12R,13S,14R,15R,16R,17S,18S,19E,21Z)-2,15,17-Trihydroxy-11-methoxy-3,7,12,14,16,18,22-heptamethyl-30-[4-(2-methylpropyl)piperazin-1-yl]-32-{[4-({4-[2-(morpholin-4-yl)acetyl]piperazin-1-yl}methyl)phenyl]methoxy}-6,23,37-trioxo-8,27,38-trioxa-24,34-diazahexacyclo[23.11.1.1^4,7.0^5,36.0^26,35.0^28,33]octatriaconta-1(36)2,4,9,19,21,25,28,30,32,34-undecaen-13-yl acetate]	< 0.016	–	–	–
CO[C@H]1/C=C/O[C@@]2(C)Oc3c(C)c(O)c4c(=O)c(c5oc6cc(N7CCN(C(=O)c8cccc(-n9ccnc9)c8)CC7)cc(C)c6nc-5c4c3C2=O)NC(=O)/C(C)=C\C=C\[C@H](C)[C@H](O)[C@@H](C)[C@@H](O)[C@@H](C)[C@H](OC(C)=O)[C@@H]1C [Compound 29a, (7S,9E,11S,12R,13S,14R,15R,16R,17S,18S,19E,21Z)-2,15,17-Trihydroxy-30-{4-[3-(1H-imidazol-1-yl)benzoyl]piperazin-1-yl}-11-methoxy-3,7,12,14,16,18,22,32-octamethyl-6,23,37-trioxo-8,27,38-trioxa-24,34-diazahexacyclo[23.11.1.1^4,7.0^5,36.0^26,35.0^28,33]octatriaconta-1(36)2,4,9,19,21,25,28,30,32,34-undecaen-13-yl acetate]	0.126	0.61	3.5	–
CO[C@H]1/C=C/O[C@@]2(C)Oc3c(C)c(O)c4c(=O)c(c5oc6cc(N7CCN(CCCO[C@@H]8COc9nc([N+](=O)[O-])cn9C8)CC7)cc(C)c6nc-5c4c3C2=O)NC(=O)/C(C)=C\C=C\[C@H](C)[C@H](O)[C@@H](C)[C@@H](O)[C@@H](C)[C@H](OC(C)=O)[C@@H]1C [Compound 29d, (7S,9E,11S,12R,13S,14R,15R,16R,17S,18S,19E,21Z)-2,15,17-Trihydroxy-11-methoxy-3,7,12,14,16,18,22,32-octamethyl-30-[4-(3-{[(6S)-2-nitro-5H,6H,7H-imidazo[2,1-b][1,3]oxazin-6-yl]oxy}propyl)piperazin-1-yl]-6,23,37-trioxo-8,27,38-trioxa-24,34-diazahexacyclo[23.11.1.1^4,7.0^5,36.0^26,35.0^28,33]octatriaconta-1(36)2,4,9,19,21,25,28,30,32,34-undecaen-13-yl acetate]	0.053	0.20	1.4	–
CO[C@H]1/C=C/O[C@@]2(C)Oc3c(C)c(O)c4c(=O)c(c5oc6cc(C)cc(N7CCN(C)CC7)c6nc-5c4c3C2=O)NC(=O)/C(C)=C\C=C\[C@H](C)[C@H](O)[C@@H](C)[C@@H](O)[C@@H](C)[C@H](OC(C)=O)[C@@H]1C [Compound 30a, (7S,9E,11S,12R,13S,14R,15R,16R,17S,18S,19E,21Z)-2,15,17-Trihydroxy-11-methoxy-3,7,12,14,16,18,22,30-octamethyl-32-(4-methylpiperazin-1-yl)-6,23,37-trioxo-8,27,38-trioxa-24,34-diazahexacyclo[23.11.1.1^4,7.0^5,36.0^26,35.0^28,33]octatriaconta-1(36)2,4,9,19,21,25,28,30,32,34-undecaen-13-yl acetate]	–	<0.06	–	<0.016
